In patent publication US11166460B2, “α-amino acrylate microbicide, and preparation method therefor and uses thereof” (priority 2017, dated 2021):
≈ marks a conversion by molar mass, not a printed value. Read-outs that look alike come from different tables or passages of the source.

Legend:
[1] = test system: Phytophthora infestans (Mont) de Bary; assay: microbe, parasite or virus in culture; format: cell-based; conditions: Phytophthora infestans
[2] = test system: tobacco mosaic virus (TMV); assay: Anti-TMV inactivation activity (inactivation mode), compound mixed with TMV before inoculation of tobacco leaves; format: in vivo; conditions: Tobacco mosaic virus, read-out: Anti-TMV activity, Inactivation effect (inhibition)
Cercospora arachidicola = assay: Fungicidal activity, fungi growth rate method, CA; format: cell-based; conditions: Mycosphaerella arachidis, 50 μg/mL
Botrytis cinerea = assay: Fungicidal activity, fungi growth rate method, BC; format: cell-based; conditions: Botrytis cinerea, 50 μg/mL
Alternaria solani = assay: Fungicidal activity, fungi growth rate method, AS; format: cell-based; conditions: Alternaria solani, 50 μg/mL
[3] = test system: tobacco mosaic virus (TMV); assay: Anti-TMV inducing activity (induction mode), tobacco seedlings; format: in vivo; conditions: Tobacco mosaic virus, read-out: Anti-TMV activity, Induction effect (inhibition), 100 μg/mL, tobacco seedlings
Sclerotinia sclerotiorum = assay: microbe, parasite or virus in culture; format: cell-based; conditions: Sclerotinia sclerotiorum; for inhibition at 50 µg/mL: 50 μg/mL; for EC90: read-out: EC90 against S. sclerotiorum in vitro
Rhizoctonia cerealis = assay: Fungicidal activity, fungi growth rate method, RC; format: cell-based; conditions: Ceratobasidium cereale, 50 μg/mL
Physalospora piricola = assay: Fungicidal activity, fungi growth rate method, PP; format: cell-based; conditions: 50 μg/mL
[4] = test system: tobacco mosaic virus (TMV); assay: Anti-TMV protective activity (protection mode), live friction inoculation on tobacco seedlings; format: in vivo; conditions: Tobacco mosaic virus, read-out: Anti-TMV activity, Protection effect (inhibition)
[5] = test system: tobacco mosaic virus (TMV); assay: Anti-TMV curative activity (treatment mode), live friction inoculation on tobacco seedlings; format: in vivo; conditions: Tobacco mosaic virus, read-out: Anti-TMV activity, Curative effect (inhibition), 100 μg/mL, tobacco seedlings, checked on seventh day
wheat Gibberella zeae = assay: microbe, parasite or virus in culture; format: cell-based; conditions: Fusarium graminearum
Pellicularia sasakii = assay: Fungicidal activity, fungi growth rate method, PS; format: cell-based; conditions: 50 μg/mL
[6] = read-out: Fungicidal activity, inhibition, PI
[7] = read-out: Fungicidal activity, inhibition, CA
[8] = read-out: Fungicidal activity, inhibition, BC
[9] = read-out: Fungicidal activity, inhibition, AS
[10] = read-out: Fungicidal activity, inhibition, SS
[11] = read-out: Fungicidal activity, inhibition, RC
[12] = read-out: Fungicidal activity, inhibition, PP
[13] = read-out: Fungicidal activity, inhibition, GZ
[14] = read-out: Fungicidal activity, inhibition, PS
[15] = read-out: Fungicidal activity (inhibition) against PI: Phytophthora infestans (Mont) de Bary
[16] = read-out: Fungicidal activity (inhibition) against CA: Cercospora arachidicola
[17] = read-out: Fungicidal activity (inhibition) against BC: Botrytis cinerea
[18] = read-out: Fungicidal activity (inhibition) against SS: Sclerotinia sclerotiorum
[19] = read-out: Fungicidal activity (inhibition) against PS: Pellicularia sasakii

| Structure (SMILES) | inhibition at 50 µg/mL [1, 6] [%] | inhibition at 100 µg/mL [2] [%] | inhibition at 50 µg/mL (Cercospora arachidicola; [7]) [%] | inhibition at 50 µg/mL (Botrytis cinerea; [8]) [%] | inhibition at 50 µg/mL (Alternaria solani; [9]) [%] | inhibition at 100 µg/mL [3] [%] | inhibition at 50 µg/mL (Sclerotinia sclerotiorum; [10]) [%] | melting point [°C] | inhibition at 50 µg/mL (Rhizoctonia cerealis; [11]) [%] | inhibition at 50 µg/mL (Physalospora piricola; [12]) [%] | inhibition at 100 µg/mL [4] [%] | inhibition at 100 µg/mL [5] [%] | inhibition at 50 µg/mL (wheat Gibberella zeae; [13]) [%] | inhibition at 50 µg/mL (Pellicularia sasakii; [14]) [%] | inhibition at 50 µg/mL [1, 15] [%] | inhibition at 50 µg/mL (Sclerotinia sclerotiorum; [18]) [%] | also measured |
| --- | --- | --- | --- | --- | --- | --- | --- | --- | --- | --- | --- | --- | --- | --- | --- | --- | --- |
| O=C(N/C(=C\c1ccccc1)C(=O)N1CCC(O)(c2ccc(Br)cc2)CC1)c1ccc(Br)cc1 [Compound 8, (Z)-N-[1-[[4-(4-bromophenyl)-4-hydroxy-1-piperidinyl]carbonyl]-2-phenylethenyl]-4-bromobenzamide] | 26 | 19 | 18 | 18 | 21 | 50 | 50 | 186 to 188 | 23 | 6 | 1 | 0 | 29 | 20 | – | – | – |
| COc1ccc(/C=C(\NC(=O)c2ccccc2)C(=O)N2CCC(O)(c3ccc(Br)cc3)CC2)cc1 [Compound 16, (Z)-N-[1-[[4-(4-bromophenyl)-4-hydroxy-1-piperidinyl]carbonyl]-2-(4-methoxyphenyl)ethenyl]benzamide] | 33 | 1 | 55 | 29 | 23 | 8 | 67 | 208 to 210 | 13 | 5 | 57 | 0 | 2 | 15 | 33 | – | inhibition at 50 µg/mL (Cercospora arachidicola; [16]): 55% |
| O=C(NC1CC1)/C(=C/c1ccccc1)NC(=O)c1ccccc1 [Compound 39, (Z)-N-[1-[(cyclopropylamino)carbonyl]-2-phenylethenyl]benzamide] | 11 | 0 | 13 | 9 | 17 | 34 | 67 | 185 to 186 | 3 | 3 | 10 | 18 | 13 | 6 | < 25 | 67 | inhibition at 50 µg/mL (Cercospora arachidicola; [16]): < 25%; inhibition at 50 µg/mL (Botrytis cinerea; [17]): ≤ 20%; inhibition at 50 µg/mL (Alternaria solani; read-out: Fungicidal activity (inhibition) against AS: Alternaria solani): < 30%; inhibition at 50 µg/mL (Rhizoctonia cerealis; read-out: Fungicidal activity (inhibition) against RC: Rhizoctonia cerealis): < 20%; inhibition at 50 µg/mL (Physalospora piricola; read-out: Fungicidal activity (inhibition) against PP: Physalospora piricola): < 20%; inhibition at 50 µg/mL (wheat Gibberella zeae; read-out: Fungicidal activity (inhibition) against GZ: wheat Gibberella zeae): < 45%; inhibition at 50 µg/mL (Pellicularia sasakii; [19]): < 30% |
| O=C(NCc1ccc(Br)cc1)/C(=C/c1ccccc1)NC(=O)C1CCCCC1 [Compound 60, N-[(1Z)-2-phenyl-1-[[(4-bromophenylmethyl)amino]carbonyl]ethenyl]cyclohexanecarboxamide] | 16 | 53 | 18 | 18 | 21 | 18 | 38 | 215 to 216 | 23 | 12 | 28 | 16 | 57 | 9 | – | – | – |
| O=C(N/C(=C\c1ccc(Br)cc1)C(=O)N1CCC(O)(c2ccc(Br)cc2)CC1)c1ccccc1 [Compound 19, (Z)-N-[1-[[4-(4-bromophenyl)-4-hydroxy-1-piperidinyl]carbonyl]-2-(4-bromophenyl)ethenyl]benzamide] | 27 | 0 | 3 | 4 | 21 | 0 | 44 | 147 to 148 | 19 | 16 | 46 | 0 | 5 | 12 | – | – | – |
| O=C(N/C(=C\c1ccccc1)C(=O)N1CCC(O)(c2ccc(Br)cc2)CC1)c1cccc([N+](=O)[O-])c1 [Compound 11, (Z)-N-[1-[[4-(4-bromophenyl)-4-hydroxy-1-piperidinyl]carbonyl]-2-phenylethenyl]-3-nitrobenzamide] | 14 | 71 | 25 | 12 | 24 | 33 | 100 | 128 to 129 | 24 | 21 | 5 | 78 | 34 | 8 | – | 100 | EC90 (Sclerotinia sclerotiorum): 127 µg/mL (≈ 232 µM) |
| Cc1nnsc1/C=C(\NC(=O)c1ccccc1)C(=O)N1CCC(O)(c2ccc(Br)cc2)CC1 [Compound 27, (Z)-N-[1-[[4-(4-bromophenyl)-4-hydroxy-1-piperidinyl]carbonyl]-2-[5-(4-methyl-1,2,3-thiadiazol)]ethenyl]benzamide] | 24 | 34 | 12 | 26 | 21 | 0 | 47 | 212 to 214 | 23 | 12 | 37 | 3 | 57 | 20 | ~20 | – | inhibition at 50 µg/mL (Botrytis cinerea; [17]): ~20%; inhibition at 50 µg/mL (Pellicularia sasakii; [19]): ~20% |
| O=C(NCc1ccc(Cl)cc1)/C(=C/c1ccccc1)NC(=O)c1ccccc1 [Compound 56, N-[(1Z)-2-phenyl-1-[[(4-chlorophenylmethyl)amino]carbonyl]ethenyl]benzamide] | 5 | 58 | 14 | 22 | 24 | 4 | 100 | 202 to 204 | 17 | 4 | 0 | 30 | 19 | 12 | – | 100 | EC90 (Sclerotinia sclerotiorum): 1260 µg/mL (≈ 3210 µM) |
